Measurements: patent US5444055A, “17-hydroxyiminomethyl-5-β, 14 β-androstane derivatives active on the cardiovascular system, processes for their preparation and pharmaceutical compositions containing same” (Sigma-Tau Industrie Farmaceutiche Riunite S.p.A., priority 1992, dated 1995)

Columns and labels:
[1] = biological target: T1, Na^+,K^+ -ATPase (Homo sapiens, UniProt P05023); test: inhibition of the activity of purified Na^+,K^+ -ATPase (hydrolysis of ^32 P-ATP); format: biochemical
[2] = biological target: T1, Na^+,K^+ -ATPase; test: displacement of specific ^3 H-ouabain binding from purified Na^+,K^+ -ATPase receptor
[3] = system: Na^+,K^+ -ATPase; conditions: literature report; cited from earlier work
[4] = literature report; cited from earlier work
[5] = prevention of development of hypertension, 5-week oral treatment, tail cuff SBP and HR; format: in vivo; conditions: 5 week-treatment, 20 mg/Kg/os daily in Methocel 0.5% w/v, 7 rats (MHS); for SBP: controls 173 +/- 4.5; for HR: controls 382 +/- 8.3
[6] = purified Na^+,K^+ -ATPase, ^32 P-ATP hydrolysis, read-out: Inhibitory Activity -log IC50 (converted)
[7] = read-out: Binding ^3 H-Ouab. Displacement -log IC50 (converted)

SMILES | IC50 [1, 6] | IC50 [2, 7] | IC50 [1] | other results
CN(C)CCO/N=C/[C@H]1CC[C@]2(O)[C@@H]3CC[C@@H]4CC(=NNC(=N)N)CC[C@]4(C)[C@H]3CC[C@]12C (mixture of isomers) [Comp. I-aw, 3-((EZ)-Guanidinoimino)-17β-((E)-2-dimethylaminoethoxyiminomethyl)-5β-androstane-14β-ol] | 1.26 µM | 0.0794 µM | – | –
CN(C)CCON=C1CC[C@@]2(C)[C@H](CC[C@@H]3[C@@H]2CC[C@]2(C)[C@@H](/C=N/OCCN(C)C)CC[C@]32O)C1 (mixture of isomers) [Comp. I-az] | 2 µM | 0.126 µM | – | –
C[C@]12CC[C@H](O)C[C@H]1CC[C@@H]1[C@@H]2CC[C@]2(C)C(=NNC(=N)N)CC[C@]12O [17-guanidinoimino-5β-androstane-3β,14β-diol] | – | – | – | inhibition of Na^+,K^+-ATPase [3]: weak inhibitors of Na^+,K^+ -ATPase; positive inotropic activity [4]: weak positive inotropic agents
C[C@]12CC[C@H](O)C[C@H]1CC[C@@H]1[C@@H]2CC[C@]2(C)[C@@H](C=NNC(=N)N)CC[C@]12O [17β-guanidinoiminomethyl-5β-androstane-3β,14β-diol] | – | – | – | inhibition of Na^+,K^+-ATPase [3]: weak inhibitors of Na^+,K^+ -ATPase; positive inotropic activity [4]: weak positive inotropic agents
C[C@]12CC[C@H](O)C[C@H]1CC[C@@H]1[C@@H]2CC[C@]2(C)[C@@H](C=NO)CC[C@]12O [17β-hydroxyiminomethyl-5β-androstane-3b,14b-diol] | – | – | – | inhibition of Na^+,K^+-ATPase [3]: not to inhibit Na^+,K^+ -ATPase
CO/N=C/[C@H]1CC[C@]2(O)[C@@H]3CC[C@@H]4C[C@@H](O)CC[C@]4(C)[C@H]3CC[C@]12C [Comp. I-aa, (E)-17β-Methoxyiminomethyl-5β-androstane-3β,14β-diol] | – | 3.98 µM | 31.6 µM | –
C[C@]12CC[C@H](O)C[C@H]1CC[C@@H]1[C@@H]2CC[C@]2(C)[C@@H](/C=N/OCCN)CC[C@]12O [Comp. I-ab, (E)-17β-(2-Aminoethoxyimino)methyl-5β-androstane-3β-diol] | 1.58 µM | 0.0794 µM | – | –
CN(C)CCO/N=C/[C@H]1CC[C@]2(O)[C@@H]3CC[C@@H]4C[C@@H](O)CC[C@]4(C)[C@H]3CC[C@]12C [Comp. I-ad, (E)-17β-(2-Dimethylaminoethoxyimino)methyl-5β-androstane-3β,14 β-diol] | – | 0.0398 µM | 1.26 µM | SBP [5]: 148 +/- 4.0 mm Hg; HR [5]: 375 +/- 10.5 beats/min.
CN(C)CCCO/N=C/[C@H]1CC[C@]2(O)[C@@H]3CC[C@@H]4C[C@@H](O)CC[C@]4(C)[C@H]3CC[C@]12C [Comp. I-af, (E)-17β-(3-Dimethylaminopropoxyimino)methyl-5.β-androstane-3β,14β-diol] | – | 0.158 µM | 2.51 µM | –
C[C@]12CC[C@H](O)C[C@H]1CC[C@@H]1[C@@H]2CC[C@]2(C)[C@@H](/C=N/OCCNC(=N)N)CC[C@]12O [Comp. I-ag, (E)-17β-(2-Guanidinoethoxyimino)methyl-5β-androstane-3β,14β-diol] | – | 0.158 µM | 3.16 µM | –
C/C(=N\OCCN(C)C)[C@H]1CC[C@]2(O)[C@@H]3CC[C@@H]4C[C@@H](O)CC[C@]4(C)[C@H]3CC[C@]12C [Comp. I-ai, (E)-20-(2-Dimethylaminoethoxyimino)-5β-pregnane-3β,14β-diol] | 2 µM | 0.0794 µM | – | –
CN(C)CCO/N=C/[C@@]1(O)CC[C@]2(O)[C@@H]3CC[C@@H]4C[C@@H](O)CC[C@]4(C)[C@H]3CC[C@]12C [Comp. I-ak, (E)-17β-(2-Dimethylaminoethoxyimino)methyl-5β-androstane-3β,14β,17α-triol] | 39.8 µM | 1 µM | – | –
CO/N=C/[C@H]1CC[C@]2(O)[C@@H]3CC[C@@H]4C[C@@H](OCCCN)CC[C@]4(C)[C@H]3CC[C@]12C [Comp. I-aq, (E)-3β-(3-Aminopropoxy)-17β-methoxyiminomethyl-5β-androstane-14β-ol] | – | 0.631 µM | 15.8 µM | –
CO/N=C/[C@H]1CC[C@]2(O)[C@@H]3CC[C@@H]4C[C@@H](OCCN5CCCC5)CC[C@]4(C)[C@H]3CC[C@]12C [Comp. I-ar] | 15.8 µM | 0.794 µM | – | SBP [5]: 158 +/- 4.0 mm Hg; HR [5]: 385 +/- 6.4 beats/min.
CN(C)CCO/N=C/[C@H]1CC[C@]2(O)[C@@H]3CC[C@@H]4C[C@@H](OCCCN)CC[C@]4(C)[C@H]3CC[C@]12C [Comp. I-as, (E)-3β-(3-Aminopropoxy)-17β-(2-dimethylaminoethoxyimino)methyl-5β-androstane-14β-ol] | 0.316 µM | 0.0398 µM | – | SBP [5]: 149 +/- 7.9 mm Hg; HR [5]: 377 +/- 9.5 beats/min.
CN(C)CCO/N=C/[C@H]1CC[C@]2(O)[C@@H]3CC[C@@H]4C[C@@H](OCCN5CCCC5)CC[C@]4(C)[C@H]3CC[C@]12C [Comp. I-au, (E)-3β-(2-(1-Pyrrolidinyl)ethoxy)-17β-(2-dimethylaminoethoxyimino)methyl-5β-androstane-3β,14β-diol] | 0.398 µM | – | – | IC50 [2]: 0.0501 µM
